Test results from patent publication US8541670B2, “Compositions and methods for inhibiting tumor cell growth” (priority 2007, dated 2013).
Where no end group is shown, it is not given here.

Key:
AKT [1] = assay: AKT activity in cultured neurons treated with PKA inhibitor or activator; assay type: cell-based
Protocol: To evaluate the significance of the AKT-PKAc interaction, kinase inhibitors were employed. […] Thus, cultured neurons were treated with the selective PKA inhibitor, H-89, and the potent PKA activator, forskolin, and AKT activity was analyzed.

N2a cells [2] = assay: Trypan blue staining, live and dead cell count; assay type: cell-based
Text: Therefore, in addition to capturing live images, cells were stained with trypan blue at different time intervals following treatment with ZaTa and counted by a light microscope using a hemocytometer.

AKT [3] = molecular target: T1, AKT (Homo sapiens, UniProt P31749); assay: Screen of PKAc peptide library for effect on catalytic activity of AKT; assay type: biochemical; details: single peptide
T1 construct: purchased Upstate Biotechnology
T1 sequence (P31749 whole entry): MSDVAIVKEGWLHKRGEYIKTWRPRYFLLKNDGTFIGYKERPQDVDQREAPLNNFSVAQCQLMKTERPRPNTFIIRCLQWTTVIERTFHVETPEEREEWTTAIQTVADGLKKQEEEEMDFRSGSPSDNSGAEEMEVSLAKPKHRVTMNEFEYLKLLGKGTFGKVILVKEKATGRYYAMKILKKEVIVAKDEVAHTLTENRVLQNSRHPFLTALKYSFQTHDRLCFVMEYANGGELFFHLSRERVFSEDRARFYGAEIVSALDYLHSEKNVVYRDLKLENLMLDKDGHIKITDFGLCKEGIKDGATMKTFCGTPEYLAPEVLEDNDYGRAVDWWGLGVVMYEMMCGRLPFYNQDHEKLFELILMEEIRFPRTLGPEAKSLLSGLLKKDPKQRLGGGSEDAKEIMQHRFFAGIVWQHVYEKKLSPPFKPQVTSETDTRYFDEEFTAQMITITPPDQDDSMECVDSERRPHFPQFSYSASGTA
Text: Unlike PKAc and protein kinase C (PKC) for which potent inhibitor peptides are readily available and widely used, inhibitors of AKT are generally lacking (Brazil, et al. (2004) supra). […] Moreover, optimal substrate motifs for AKT have been modified to design AKT inhibitors (Obata, et al. (2000) J. Biol. Chem. 275:36108-36115). Because the full-length PKAc protein inhibited the catalytic activity of AKT, a peptide library based on the human (GENBANK Accession No. NP_002721; SEQ ID NO:1) and bovine (GENBANK Accession No. CAA47627; SEQ ID NO:2) PKAc protein sequences was designed and synthesized. This library contained 96 overlapping peptides (Table 1), covering the full-length protein sequence of human and bovine PKAc from the N- to C-terminus. The library was extensively screened to identify fragments of PKAc that mediated the inhibitory effect of PKAc toward AKT.
These peptides included peptide 49 (SEQ ID NO:56), 53 (SEQ ID NO:60), 62 (SEQ ID NO:69), 63 (SEQ ID NO:70) and 64 (SEQ ID NO:71). Combinations of consecutive overlapping peptide fragments were also assayed for an effect on the catalytic activity of AKT. A significant inhibitory effect was also observed when peptides 25 through 36 were combined (i.e., SEQ ID NOs:32-43), peptides 37 through 48 were combined (i.e., SEQ ID NOs:44-55), peptides 49 through 60 were combined (i.e., SEQ ID NOs:56-67), and peptides 61 through 72 were combined (i.e., SEQ ID NOs:68-79).

AKT1 = molecular target: T2, AKT1 (Homo sapiens, UniProt P31749); assay: AKT1 radioactive in vitro kinase assay (32P incorporation into Ser-21 GSK-3 substrate peptide); assay type: biochemical; details: compared with ZaTa
T2 construct: purchased Upstate Biotechnology
T2 sequence (P31749 whole entry): as above
Protocol: AKT1 catalytic activity was determined by measuring the incorporation of −^32P into Ser-21 glycogen synthase kinase 3[…] (GSK-3[…]) substrate peptide. Histogram bars represent the number of −^32P counts per minute (CPM). Reactions were carried out in the presence of different concentrations of the ZaTa peptide (SEQ ID NO:60), as well as a control peptide (SEQ ID NO:59) which shares 11 out of 17 amino acids in common with the N-terminus of the ZaTa peptide.
Of particular interest with regard to inhibitory activity toward AKT was peptide […](SEQ ID NO:60) which flanked the Thr-197 phosphorylation site of PKAc. […] Furthermore, the inhibitory effect of ZaTa peptide was compared with an adjacent peptide ([…] SEQ ID NO:59), a peptide that overlaps with the 11 N-terminal amino acid residues of the ZaTa peptide and carries the Thr-197 phosphorylation site. In this assay, the level of incorporation of −^32 P into Ser-21 GSK-3[…] substrate peptide was used as the measure of AKT1 in vitro catalytic activity.
For non-radioactive kinase assays, typically 25 ng of active AKT1 or PKAc (Upstate Biotechnology) was used in a kinase assay reaction buffer (20 mM MOPS, pH 7.2, 25 mM […]-glycerophosphate, 5 mM EGTA, 1 mM Na3VO4, 1 mM dithiothreitol, 75 mM MgCl2, and 0.5 mM ATP) in the presence of either 1 μL of Ser-9 GSK-3 GST fusion protein (Cell Signaling), or recombinant DARPP-32 (10 μg). For the radioactive kinase assays, typically 25 ng of kinase was added to the kinase assays reaction buffer (20 mM MOPS, pH 7.2, 25 mM […]-glycerophosphate, 5 mM EGTA, 1 mM Na3VO4, 1 mM dithiothreitol) containing 30 μM of dephosphorylated Ser-21 GSK-3 substrate peptide (Upstate Biotechnology) in the presence of different concentrations of inhibitor. Reactions were initiated by adding [−^32P] ATP (10 μCi/reaction) which was diluted in the reaction buffer, plus 500 μM cold ATP and 75 mM MgCl2. Kinase reactions were incubated 30° C. for 10-20 minutes. A 5 μL aliquot of the reaction was transferred to phosphocellulose paper, washed for 30 minutes with dH2O, and CPM of samples read in scintillation counter.

olfactory bulb cells = assay: In vivo TUNEL in olfactory bulb after repeated intranasal delivery; design: species or system C57BL/6 mice; details: repeated intranasal treatment for three days
Text: To confirm the apoptotic inducing effect of ZaTa in vivo, ZaTa was delivered to the mouse brain via the nasal cavity, a minimally invasive procedure compared to the stereotactic surgery. Intranasal delivery of compounds into the brain is an efficient and effective way for local delivery of compounds, without the need for passing the blood brain barriers, the major obstacle for studying the effect of different inhibitors/activators in CNS (Vyas, et al. (2005) Curr. Drug Deliv. 2:165-175; Hrafnkelsdottir, et al. (2005) Biol. Pharm. Bull. 28:1038-1042). […] This was visualized by double labeling of the brain sections with fluorescent TUNEL and a nuclear marker.
Depending on the intended use, a pharmaceutical composition of the invention can be administered by any suitable means, including parenteral injection (such as intraperitoneal, subcutaneous, intratumoral or intramuscular injection), orally or by topical application (e.g., transdermal or via a mucosal surface). By pharmaceutically acceptable formulation is meant, a composition or formulation that allows for the effective distribution of the nucleic acid molecules of the instant invention in the physical location most suitable for their desired activity. […]

N2a cells [4] = assay: MTT cell proliferation assay; assay type: cell-based; details: 10 μM, 48-hour treatment (FIG. 3, series 1)
Protocol: In histogram series 2, treatments were removed after 24 hours and cells were incubated for another 24 hours without treatment. […] Mitochondrial activity (reflecting cellular growth and viability) in the presence of ZaTa and ZaTa variants (ZaTa T10D, ZaTa T8D, ZaTa T14R, and ZaTa Y17T) was evaluated by measuring the optical density (“OD”) at 490 nm on a plate reader. ZaTa T10D refers to a ZaTa polypeptide variant in which the Threonine (T) at position 10 of SEQ ID NO: 60 is substituted by an Aspartic Acid (D). ZaTa T8D refers to a ZaTa polypeptide variant in which the Threonine (T) at position 8 of SEQ ID NO: 60 is substituted by an Aspartic Acid (D). ZaTa T14R refers to a ZaTa polypeptide variant in which the Threonine (T) at position 14 of SEQ ID NO: 60 is substituted by an Arginine (R). ZaTa Y17T refers to a ZaTa polypeptide variant in which the Tyrosine (Y) at position 17 of SEQ ID NO: 60 is substituted by an Threonine (T).
AKT affects a network that positively regulates G1/S cell cycle progression through several mechanisms that involve the expression and subcellular localization of the CDK inhibitor p27^Kip1 (Blain and Massague (2002) Nat. Med. 8:1076-1078; Liang, et al. (2002) supra; Shin, et al. (2002) supra; Viglietto, et al. (2002) supra). Based on these studies, the effect of ZaTa peptide on cell proliferation was assessed. […] Capturing live images of cultured N2a cells in the presence of different concentrations of the ZaTa peptide confirmed an obvious reduction in the number of dividing cells.
Based on the importance of the C-terminal arm of ZaTa for its inhibitory action on AKT, it was determined whether the free hydroxyl groups on residues Thr-8, Thr-10 (equivalent to Thr-197 in full-length PKAc), Thr-14 and Tyr-17 were important for the biological activity of this peptide. Mutants of ZaTa peptide were synthesized by replacing Thr-8 or Thr-10 residues with Asp (ZaTa^T8D and ZaTa^T10D, respectively) as an amino acid with a negatively charged side chain. Mutants of ZaTa with the hydrophilic positively charged amino acid Arg at either position Thr-14 or Tyr-17 (ZaTa^T14R and ZaTa^Y17R, respectively) were also synthesized. […] The inhibitory effect of ZaTa peptide on cell proliferation was reversible, to a large extent, after the removal of ZaTa treatment (FIG. 3, histogram series 2).
Cells (5×10^3) were incubated in 96-well plates in the presence of different concentrations of the ZaTa peptide, control peptide or DMSO as vehicle. Media was removed at different time intervals and replaced with media containing MTT (5 mg/mL), and incubated for one hour at 37° C. […] The activity of the mitochondria, reflecting cellular growth and viability, was evaluated by measuring the optical density at 490 nm on a plate reader.

[5] = counted at time points from 12 to 72 hours

O=S(=O)(NCCNC/C=C/c1ccc(Br)cc1)c1cccc2cnccc12 [Peptide H-89]
activity of AKT, phosphorylation level at Thr-308 and Ser-473 (AKT [1]): dose-dependent increase

AKRVKGRDWTLCGTPEY [ZaTa^T8D]
increase in the number of dead cells (N2a cells [2]; [5]): not seen

AKRVKGRTWDLCGTPEY [ZaTa^T10D]
increase in the number of dead cells (N2a cells [2]; [5]): not seen

AKRVKGRTWTLCGRPEY [ZaTa^T14R]
increase in the number of dead cells (N2a cells [2]; only after 72 hours): significant increase in the number of dead cells

D-Q-Q-G-Y-I-Q-V-T-D-F-G-F-A-K (DQQGYIQVTDFGFAK; Peptide_SEQ ID NO:56) [Peptide 49]
inhibitory effect toward AKT, individual library peptides (AKT [3]): significant inhibitory effects

G-V-L-I-Y-E-M-A-A-G-Y-P-P-F-F (GVLIYEMAAGYPPFF; Peptide_SEQ ID NO:70) [Peptide 63]
inhibitory effect toward AKT, individual library peptides (AKT [3]): significant inhibitory effects

GFAKRVKGRTWTL [control peptide, peptide overlapping the 11 N-terminal residues of ZaTa, reference compound]
inhibition of AKT1 catalytic activity (AKT1): not able to inhibit AKT1
number of apoptotic cells in olfactory bulb (olfactory bulb cells): no change in the number of apoptotic cells

W-A-L-G-V-L-I-Y-E-M-A-A-G-Y (WALGVLIYEMAAGY; Peptide_SEQ ID NO:69) [Peptide 62]
inhibitory effect toward AKT, individual library peptides (AKT [3]): significant inhibitory effects

Y-E-M-A-A-G-Y-P-P-F-F-A (YEMAAGYPPFFA; Peptide_SEQ ID NO:71) [Peptide 64]
inhibitory effect toward AKT, individual library peptides (AKT [3]): significant inhibitory effects

ZaTa^Y17R: ZaTa mutant with Arg at position Tyr-17 (AKRVKGRTWTLCGTPER; Peptide_SEQ ID NO:60)
increase in the number of dead cells (N2a cells [2]; only after 72 hours): significant increase in the number of dead cells
effect of mutation on inhibition of cell proliferation relative to ZaTa (N2a cells [4]): considerably augmented ZaTa activity
